Measured values reported in ChEMBL document CHEMBL3638693, “Pyrazole compound and pharmaceutical use thereof” (2014).

Molecular target: T1, Sodium/glucose cotransporter 1 (Homo sapiens, UniProt P13866)
T1 sequence (P13866 whole entry): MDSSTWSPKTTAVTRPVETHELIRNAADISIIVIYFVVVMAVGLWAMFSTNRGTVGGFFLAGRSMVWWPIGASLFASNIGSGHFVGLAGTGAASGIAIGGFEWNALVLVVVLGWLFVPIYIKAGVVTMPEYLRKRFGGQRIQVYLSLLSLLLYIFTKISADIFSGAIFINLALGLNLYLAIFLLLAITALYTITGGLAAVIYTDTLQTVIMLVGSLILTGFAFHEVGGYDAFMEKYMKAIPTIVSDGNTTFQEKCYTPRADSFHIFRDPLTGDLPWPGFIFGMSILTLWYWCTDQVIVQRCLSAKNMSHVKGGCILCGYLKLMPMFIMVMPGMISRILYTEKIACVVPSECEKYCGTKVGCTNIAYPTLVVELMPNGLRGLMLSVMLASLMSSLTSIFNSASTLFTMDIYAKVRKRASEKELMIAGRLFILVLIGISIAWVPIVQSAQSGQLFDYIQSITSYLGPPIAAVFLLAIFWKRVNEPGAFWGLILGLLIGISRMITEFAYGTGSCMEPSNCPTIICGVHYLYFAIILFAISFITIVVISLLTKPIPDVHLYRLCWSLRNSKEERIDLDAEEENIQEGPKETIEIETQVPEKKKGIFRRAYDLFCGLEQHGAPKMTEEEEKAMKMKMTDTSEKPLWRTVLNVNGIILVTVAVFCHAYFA
Experiment: Inhibition Assay: The stable cell line expressing human SGLT1 was seeded at 5x10^4 cells/well on BioCoat Poly-D-Lysine 96 well plate with Lid (Becton Dickinson and Company) and cultured at 37 C. under 5% CO2 overnight. The medium was replaced with 100 uL/well of a Na (+) buffer (140 mM choline chloride, 2 mM KCl, 1 mM MgCl2, 1 mM CaCl2, 10 mM HEPES, 5 mM Tris, pH7.4) followed by incubation for 20 minutes at 37 C. under 5% CO2. After removing the Na (+) buffer, a test compound solution which was prepared from Na (+) buffer (140 mM NaCl, 2 mM KCl, 1 mM MgCl2, 1 mM CaCl2, 10 mM HEPES, 5 mM Tris, pH7.4) containing BSA was added thereto at 40 uL/well. In addition, Na (+) buffer containing 8 kBq of 14C-AMG and 2 mM AMG was added thereto at 40 uL/well, and was mixed well. Na (+) buffer containing BSA was added to a blank well at 40 uL/well and additionally adding a Na (+) buffer containing 8 kBq of 14C-AMG and 2 mM AMG, and was mixed well.

For `O=C1C[C@H](C(=O)Nc2cc(-c3cccc(COCC(F)(F)F)c3)n(-c3ccc(F)cc3)n2)CN1`, which IC50 is on record?
The IC50 was 22 nM.
